Experimental data published in PubChem BioAssay AID1963858 (Molecular Pharmacology Branch, DTP, NCI, 2024).

Tested on: HOP-62 multicell spheroids with HUVEC/MSC, viability
Assay: Anticancer human tumor HOP-62 cell line growth inhibition [KRAS2];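 further: viability read after a week of compound exposure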;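 on viability, T/C: 100% = DMSO vehicle-treated spheroids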
Details: for IC50: curve of first compound; for viability, T/C: stronger effect = lower value
How it was run: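 KRAS-mutant tumor cells were grown as spheroids with HUVEC endothelial cells and human MSCs as stroma. Targeted agents were tested alone and with KRAS pathway inhibitors. Doses started at or near clinical Cmax, or 10 microM, descending half-log.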

[1] = second compound 0.1 µM, first compound 0.0316 µM
[2] = second compound 0.1 µM, first compound 0.1 µM
[3] = second compound 0.1 µM, first compound 0.316 µM
[4] = second compound 0.1 µM, first compound 1 µM
[5] = second compound 0.1 µM, first compound 3.16 µM
[6] = second compound 0.1 µM, first compound 10 µM
[7] = second compound 0.316 µM, first compound 0.0316 µM
[8] = second compound 0.316 µM, first compound 0.1 µM
[9] = second compound 0.316 µM, first compound 0.316 µM
[10] = second compound 0.316 µM, first compound 1 µM
[11] = second compound 0.316 µM, first compound 3.16 µM
[12] = second compound 0.316 µM, first compound 10 µM
[13] = second compound 1 µM, first compound 0.0316 µM
[14] = second compound 1 µM, first compound 0.1 µM
[15] = second compound 1 µM, first compound 0.316 µM
[16] = second compound 1 µM, first compound 1 µM
[17] = second compound 1 µM, first compound 3.16 µM
[18] = second compound 1 µM, first compound 10 µM
[19] = second compound 3.16 µM, first compound 0.0316 µM
[20] = second compound 3.16 µM, first compound 0.1 µM
[21] = second compound 3.16 µM, first compound 0.316 µM
[22] = second compound 3.16 µM, first compound 1 µM
[23] = second compound 3.16 µM, first compound 3.16 µM
[24] = second compound 3.16 µM, first compound 10 µM
[25] = second compound 10 µM, first compound 0.0316 µM
[26] = second compound 10 µM, first compound 0.1 µM
[27] = second compound 10 µM, first compound 0.316 µM
[28] = second compound 10 µM, first compound 1 µM

Work on CCNC(=O)CC1N=C(c2ccc(Cl)cc2)c2cc(OC)ccc2-n2c(C)nnc21 (stereo not given) + C=CC(=O)N1CCN(c2nc(OCC3CCCN3C)nc3c2CCN(c2cccc4cccc(C)c24)C3)CC1CC#N yielded an IC50 (second compound 0.0316 µM) of 0.168 µM, an IC50 (second compound 0.1 µM) of 0.0374 µM and an IC50 (second compound 0.316 µM) of 0.437 µM. For the same molecule, the IC50 (second compound 1 µM) was under 0.0316 µM, the IC50 (second compound 3.16 µM) was under 0.0316 µM and the viability, T/C (second compound 0.0316 µM, first compound 0.0316 µM) was 82.8%. For the same molecule, the viability, T/C (second compound 0.0316 µM, first compound 0.1 µM) was 62.3%, the viability, T/C (second compound 0.0316 µM, first compound 0.316 µM) was 34.6% and the viability, T/C (second compound 0.0316 µM, first compound 1 µM) was 33.2%. The viability, T/C (second compound 0.0316 µM, first compound 3.16 µM) was 27.2%, the viability, T/C (second compound 0.0316 µM, first compound 10 µM) was 29.3% and the viability, T/C [1] was 51%. It also gave a viability, T/C [2] of 43.6%, a viability, T/C [3] of 25.1% and a viability, T/C [4] of 22.7%. The viability, T/C [5] was 18.2%, the viability, T/C [6] was 20.6% and the viability, T/C [7] was 95%. The viability, T/C [8] was 95.4%, the viability, T/C [9] was 53.5% and the viability, T/C [10] was 45.1%. For the same molecule, the viability, T/C [11] was 41.5%, the viability, T/C [12] was 36.8% and the viability, T/C [13] was 33.2%. The viability, T/C [14] was 24.5%, the viability, T/C [15] was 20.2% and the viability, T/C [16] was 19.2%. For the same molecule, the viability, T/C [17] was 16.4%, the viability, T/C [18] was 16.1% and the viability, T/C [19] was 0.58%. For the same molecule, the viability, T/C [20] was 0.37%, the viability, T/C [21] was 0.12% and the viability, T/C [22] was 0.12%. It also gave a viability, T/C [23] of 0.39% and a viability, T/C [24] of 0.19%.
In the case of CCN1CCN(Cc2ccc(Nc3ncc(F)c(-c4cc(F)c5nc(C)n(C(C)C)c5c4)n3)nc2)CC1 + C=CC(=O)N1CCN(c2nc(=O)n(-c3c(C)ccnc3C(C)C)c3nc(-c4c(O)cccc4F)c(F)cc23)C(C)C1, the IC50 (second compound 0.1 µM) is reported as 0.15 µM, the IC50 (second compound 0.316 µM) is reported as 0.0395 µM and the IC50 (second compound 1 µM) is reported as 0.501 µM. The IC50 (second compound 3.16 µM) was 0.543 µM, the IC50 (second compound 10 µM) was under 0.00316 µM and the viability, T/C (second compound 0.1 µM, first compound 0.00316 µM) was 58%. For the same molecule, the viability, T/C (second compound 0.1 µM, first compound 0.01 µM) was 53.3%, the viability, T/C [1] was 49.4% and the viability, T/C [2] was 50.5%. The viability, T/C [3] was 51.3%, the viability, T/C [4] was 40.5% and the viability, T/C (second compound 0.316 µM, first compound 0.00316 µM) was 72.5%. For the same molecule, the viability, T/C (second compound 0.316 µM, first compound 0.01 µM) was 69.4%, the viability, T/C [7] was 50.6% and the viability, T/C [8] was 48%. For the same molecule, the viability, T/C [9] was 49.8%, the viability, T/C [10] was 44.3% and the viability, T/C (second compound 1 µM, first compound 0.00316 µM) was 64.9%. It also gave a viability, T/C (second compound 1 µM, first compound 0.01 µM) of 59.2%, a viability, T/C [13] of 51.7% and a viability, T/C [14] of 60%. It also gave a viability, T/C [15] of 57.1%, a viability, T/C [16] of 39.3% and a viability, T/C (second compound 3.16 µM, first compound 0.00316 µM) of 70.4%. For the same molecule, the viability, T/C (second compound 3.16 µM, first compound 0.01 µM) was 63.6%, the viability, T/C [19] was 57.4% and the viability, T/C [20] was 53.5%. It also gave a viability, T/C [21] of 63.4%, a viability, T/C [22] of 36.9% and a viability, T/C (second compound 10 µM, first compound 0.00316 µM) of 51.9%. It also gave a viability, T/C (second compound 10 µM, first compound 0.01 µM) of 41.6%, a viability, T/C [25] of 42.1% and a viability, T/C [26] of 39.6%. For the same molecule, the viability, T/C [27] was 38.2% and the viability, T/C [28] was 22.7%.
Molecule Cn1nccc1Nc1nccc(-c2cc3c(s2)C(C)(C)N(CCN2CCOCC2)C3=O)n1 + CNCc1ccccc1-c1csc(C(C)Nc2nc(C)nc3cc(OC)c(OC)cc23)c1 has an IC50 (second compound 0.1 µM) of 1.22 µM, an IC50 (second compound 0.316 µM) of 0.859 µM and an IC50 (second compound 1 µM) of 0.646 µM. The IC50 (second compound 3.16 µM) was under 0.0316 µM, the IC50 (second compound 10 µM) was under 0.0316 µM and the viability, T/C [1] was 110%. The viability, T/C [2] was 102%, the viability, T/C [3] was 92.8% and the viability, T/C [4] was 52.5%. It also gave a viability, T/C [5] of 34.6%, a viability, T/C [6] of 28.3% and a viability, T/C [7] of 104%. It also gave a viability, T/C [8] of 98.3%, a viability, T/C [9] of 77.1% and a viability, T/C [10] of 47.5%. It also gave a viability, T/C [11] of 25.3%, a viability, T/C [12] of 26.9% and a viability, T/C [13] of 101%. The viability, T/C [14] was 99%, the viability, T/C [15] was 68.3% and the viability, T/C [16] was 39.6%. For the same molecule, the viability, T/C [17] was 27.6%, the viability, T/C [18] was 27.1% and the viability, T/C [19] was 1.01%. It also gave a viability, T/C [20] of 2.12%, a viability, T/C [21] of 0.23% and a viability, T/C [22] of 0.16%. The viability, T/C [23] was 0.1%, the viability, T/C [24] was 0.18% and the viability, T/C [25] was 0.19%. The viability, T/C [26] was 0.19%, the viability, T/C [27] was 0.2% and the viability, T/C [28] was 0.2%. It also gave a viability, T/C (second compound 10 µM, first compound 3.16 µM) of 0.22% and a viability, T/C (second compound 10 µM, first compound 10 µM) of 0.23%.
